# PMC8086025, “A benzopyran with antiarrhythmic activity is an inhibitor of Kir3.1-containing potassium channels” (The Journal of Biological Chemistry, 2021)
# “Also recorded” adds a separate entry of the source. Ends that are not written are not given here.
# Tests used:
# [1] = biological target: T1, 5-HT2B (Homo sapiens, UniProt P41595); assay: Radioligand binding, [125I](±)DOI; conditions: reference compound run for the assay
# T1 construct: expressed in transfected cells; host or cells: CHO cells
# [2] = biological target: T2, Muscarinic M5 (Homo sapiens, UniProt P08912); assay: Radioligand binding, [3H]4-DAMP; conditions: reference compound run for the assay
# T2 construct: expressed in transfected cells; host or cells: CHO cells
# T2 sequence (P08912 whole entry): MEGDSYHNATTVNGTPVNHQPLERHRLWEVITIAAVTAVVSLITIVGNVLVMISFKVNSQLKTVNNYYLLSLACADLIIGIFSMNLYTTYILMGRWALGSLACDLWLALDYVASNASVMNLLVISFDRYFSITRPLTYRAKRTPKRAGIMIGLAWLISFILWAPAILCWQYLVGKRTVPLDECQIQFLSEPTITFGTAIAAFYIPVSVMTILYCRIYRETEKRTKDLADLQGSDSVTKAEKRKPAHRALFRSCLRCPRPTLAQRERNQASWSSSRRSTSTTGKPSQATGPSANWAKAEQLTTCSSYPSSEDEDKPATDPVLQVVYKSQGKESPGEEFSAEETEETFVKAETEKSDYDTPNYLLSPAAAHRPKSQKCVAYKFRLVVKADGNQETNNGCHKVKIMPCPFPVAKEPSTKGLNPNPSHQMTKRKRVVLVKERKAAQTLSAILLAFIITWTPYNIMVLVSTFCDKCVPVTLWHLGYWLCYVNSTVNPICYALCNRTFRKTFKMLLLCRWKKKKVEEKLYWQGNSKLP
# [3] = tested on: IKACh; assay: In vivo ECG, carbachol-induced heart rate slowing in anesthetized mice; conditions: 300 μl of 200 μM i.p.
# Method: We tested the in vivo effects of BP-G1 versus those of BP-G1(SR) on heart rate in anesthetized adult mice (Fig. 8). ECG was continuously recorded. Panel A is the ECG showing that after carbachol (300 μl of 200 μM) was administered, i.p. (red mark), the heart decelerated, with a visible RR prolongation. About 10 min after carbachol injection, BP-G1 was delivered via the jugular vein (40 μl of 240 μM) (green mark). Within 5 min, there was a reversal of carbachol’s effects on the heart rate. Panel B is a control mouse showing heart rate slowing after carbachol administration (red mark).
# Mice were anesthetized (1.5% isofluorane), and a 1.2 French octapolar catheter (Millar) with a drug delivery port was placed transvenously, through the jugular vein, into the right atrium. Continuous ECG was recorded using the Animal Bio Amp and PowerLab 4/35 Advanced Instruments apparatus. […] Saline control at the same volume was performed. Results are averages ±SD.
# [4] = biological target: T3, Kir3.1/4 channel (Homo sapiens, UniProt P48544+P48549); assay: TEVC in Xenopus oocytes, Kir3.1/4; format: cell-based; set-up: expressed in transfected cells; host or cells: Xenopus laevis oocytes (cRNA injection); conditions: 1 μM, TEVC
# T3 sequence (P48549 1-501): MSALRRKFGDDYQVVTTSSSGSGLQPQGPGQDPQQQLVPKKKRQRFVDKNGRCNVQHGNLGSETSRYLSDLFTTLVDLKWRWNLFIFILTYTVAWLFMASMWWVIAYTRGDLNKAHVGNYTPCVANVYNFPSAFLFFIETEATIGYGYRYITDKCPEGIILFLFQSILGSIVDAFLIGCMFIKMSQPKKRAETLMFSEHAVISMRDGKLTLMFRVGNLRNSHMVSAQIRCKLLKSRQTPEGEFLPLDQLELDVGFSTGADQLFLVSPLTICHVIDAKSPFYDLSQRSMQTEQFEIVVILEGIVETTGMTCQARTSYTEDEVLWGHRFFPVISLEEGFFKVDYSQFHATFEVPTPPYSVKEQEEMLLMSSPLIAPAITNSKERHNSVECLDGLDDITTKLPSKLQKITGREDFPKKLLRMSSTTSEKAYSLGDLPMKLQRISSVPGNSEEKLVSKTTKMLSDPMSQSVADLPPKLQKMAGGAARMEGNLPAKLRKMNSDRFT
# T3 sequence (P48544 1-419): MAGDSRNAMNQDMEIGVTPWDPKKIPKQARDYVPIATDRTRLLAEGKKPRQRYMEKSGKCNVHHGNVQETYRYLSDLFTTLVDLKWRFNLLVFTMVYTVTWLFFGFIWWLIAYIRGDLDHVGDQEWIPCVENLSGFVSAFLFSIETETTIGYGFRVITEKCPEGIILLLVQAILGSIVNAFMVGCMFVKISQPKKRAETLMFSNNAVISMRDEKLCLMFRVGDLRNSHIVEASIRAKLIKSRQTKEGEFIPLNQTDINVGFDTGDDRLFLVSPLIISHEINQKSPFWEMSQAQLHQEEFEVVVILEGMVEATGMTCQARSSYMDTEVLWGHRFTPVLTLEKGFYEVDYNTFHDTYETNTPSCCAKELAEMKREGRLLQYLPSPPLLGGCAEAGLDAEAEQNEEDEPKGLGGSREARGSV
# Method: X. laevis oocytes were isolated and microinjected as previously described ([6]). Human Kir3.1, mouse Kir3.2, and human Kir3.4 DNA constructs were used for electrophysiology experiments. All cRNA constructs were injected in the amount of 2 ng per oocyte. Injected oocytes were incubated for 2 to 3 days at 18 °C to allow for expression. Whole-cell oocyte currents were then measured using a GeneClamp 500 amplifier (Axon Instruments). Microelectrodes had resistances of 0.5 to 1 megohm using a 3M KCl solution in 1.4% agarose. Oocytes were perfused with a low K^+ (LK) solution ND96 (2 mM KCl, 96 mM NaCl, 1 mM MgCl2, 1.8 mM CaCl2, 5 mM HEPES-Na) to establish a baseline for the recordings. Basal current was measured in a high potassium (HK) solution ND96K (96 mM KCl, 10 mM HEPES-K, 1 mM MgCl2, 1.8 mM CaCl2). To block the current, the oocyte chamber was perfused with 4 mM BaCl2 in ND96K. Only the Barium-sensitive current was used for statistical analysis. To measure the inhibitory activity of the channels, 1 μM BP-G1 in ND96K (HK) was used. Typically, oocytes were held at 0 mV (EK) and the current was monitored constantly using a ramp protocol with a command potential from −80 to +80 mV. Current amplitude was measured at the end of a 1 s sweep. All currents were analyzed when they reached steady state. Error bars in the figures represent SD (N > 4).
# [5] = tested on: hERG; conditions: read-out: Published IC50, hERG; published NTC-801 data ref 27; cited from earlier work
# [6] = biological target: T4, Kir2.1 (Homo sapiens, UniProt P63252); conditions: published NTC-801 data ref 27; cited from earlier work
# T4 construct: host or cells: HEK293
# T4 sequence (P63252 whole entry): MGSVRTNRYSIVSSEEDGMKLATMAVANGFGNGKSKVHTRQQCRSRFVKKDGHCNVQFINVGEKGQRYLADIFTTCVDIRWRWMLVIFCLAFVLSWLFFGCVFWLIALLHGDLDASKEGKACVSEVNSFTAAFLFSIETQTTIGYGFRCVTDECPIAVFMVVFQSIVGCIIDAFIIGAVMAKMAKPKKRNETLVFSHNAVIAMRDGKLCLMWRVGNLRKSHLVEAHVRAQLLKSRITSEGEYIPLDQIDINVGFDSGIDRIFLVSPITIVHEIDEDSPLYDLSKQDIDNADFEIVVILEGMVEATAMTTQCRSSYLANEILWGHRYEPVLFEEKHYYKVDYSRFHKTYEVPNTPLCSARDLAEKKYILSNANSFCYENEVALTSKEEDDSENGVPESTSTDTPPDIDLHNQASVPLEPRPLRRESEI
# [7] = biological target: Kv1.5 (Homo sapiens, UniProt P22460); conditions: published NTC-801 data ref 27; cited from earlier work
# Chain of Kv1.5 (P22460 whole entry): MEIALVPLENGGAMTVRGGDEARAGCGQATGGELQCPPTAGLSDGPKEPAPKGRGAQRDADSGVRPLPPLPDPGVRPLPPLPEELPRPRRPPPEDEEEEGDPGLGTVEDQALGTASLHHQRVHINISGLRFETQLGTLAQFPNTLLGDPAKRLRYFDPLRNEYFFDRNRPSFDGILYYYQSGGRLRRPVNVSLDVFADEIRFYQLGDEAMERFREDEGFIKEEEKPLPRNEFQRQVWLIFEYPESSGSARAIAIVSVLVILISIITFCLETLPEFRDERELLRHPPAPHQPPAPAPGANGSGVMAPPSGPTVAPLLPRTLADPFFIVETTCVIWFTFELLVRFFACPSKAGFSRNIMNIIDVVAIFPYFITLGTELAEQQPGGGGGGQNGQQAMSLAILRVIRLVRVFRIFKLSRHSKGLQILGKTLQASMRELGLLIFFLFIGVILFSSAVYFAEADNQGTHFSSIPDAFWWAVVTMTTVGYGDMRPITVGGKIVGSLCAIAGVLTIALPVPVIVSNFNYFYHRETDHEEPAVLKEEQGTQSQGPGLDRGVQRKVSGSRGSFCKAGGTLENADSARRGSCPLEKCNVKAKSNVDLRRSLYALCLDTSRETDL
# [8] = tested on: Cav1.2; conditions: read-out: Published IC50, Cav1.2; ICa,L; published NTC-801 data ref 27; cited from earlier work
# [9] = tested on: Kir3.1/3.2; set-up: method as in earlier work; conditions: published NTC-801 data ref 27; cited from earlier work
# [10] = tested on: GP IKACh; set-up: method as in earlier work; conditions: published NTC-801 data ref 27; cited from earlier work
# [11] = biological target: Kv4.3 (Homo sapiens, UniProt Q9UK17); conditions: published NTC-801 data ref 27; cited from earlier work
# Chain of Kv4.3 (Q9UK17 whole entry): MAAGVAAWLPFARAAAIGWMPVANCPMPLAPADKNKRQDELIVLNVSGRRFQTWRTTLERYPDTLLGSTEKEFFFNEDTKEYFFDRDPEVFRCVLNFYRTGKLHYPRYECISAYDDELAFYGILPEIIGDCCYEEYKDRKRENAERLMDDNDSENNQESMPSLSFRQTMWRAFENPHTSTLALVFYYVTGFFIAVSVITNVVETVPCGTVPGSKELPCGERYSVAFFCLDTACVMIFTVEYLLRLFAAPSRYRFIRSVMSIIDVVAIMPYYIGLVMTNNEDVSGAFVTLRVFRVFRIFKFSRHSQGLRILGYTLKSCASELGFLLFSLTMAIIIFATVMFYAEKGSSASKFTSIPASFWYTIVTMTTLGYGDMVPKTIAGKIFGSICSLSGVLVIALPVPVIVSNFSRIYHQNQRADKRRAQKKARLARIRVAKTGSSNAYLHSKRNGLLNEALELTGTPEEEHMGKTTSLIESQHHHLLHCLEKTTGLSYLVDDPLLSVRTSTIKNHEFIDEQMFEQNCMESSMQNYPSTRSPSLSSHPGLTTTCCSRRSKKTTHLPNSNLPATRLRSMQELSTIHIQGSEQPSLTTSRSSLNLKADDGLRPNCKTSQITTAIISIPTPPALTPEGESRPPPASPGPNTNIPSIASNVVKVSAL
# [12] = tested on: Kir3.1/3.4; set-up: method as in earlier work; conditions: oocyte; published NTC-801 data ref 27; cited from earlier work
# [13] = tested on: HCN4; set-up: method as in earlier work; conditions: published NTC-801 data ref 27; cited from earlier work
# [14] = tested on: Kv7.1/KCNE1; conditions: published NTC-801 data ref 27; cited from earlier work
# [15] = biological target: Nav1.5 (Homo sapiens, UniProt Q14524); conditions: read-out: Published IC50, Nav1.5 (1Hz); published NTC-801 data ref 27; cited from earlier work
# [16] = biological target: T5, Kir6.2/SUR2A (Homo sapiens, UniProt O60706+Q14654); conditions: IKATP; published NTC-801 data ref 27; cited from earlier work
# T5 construct: Andrew Tinker, UCL; host or cells: HEK293
# T5 sequence (Q14654 whole entry): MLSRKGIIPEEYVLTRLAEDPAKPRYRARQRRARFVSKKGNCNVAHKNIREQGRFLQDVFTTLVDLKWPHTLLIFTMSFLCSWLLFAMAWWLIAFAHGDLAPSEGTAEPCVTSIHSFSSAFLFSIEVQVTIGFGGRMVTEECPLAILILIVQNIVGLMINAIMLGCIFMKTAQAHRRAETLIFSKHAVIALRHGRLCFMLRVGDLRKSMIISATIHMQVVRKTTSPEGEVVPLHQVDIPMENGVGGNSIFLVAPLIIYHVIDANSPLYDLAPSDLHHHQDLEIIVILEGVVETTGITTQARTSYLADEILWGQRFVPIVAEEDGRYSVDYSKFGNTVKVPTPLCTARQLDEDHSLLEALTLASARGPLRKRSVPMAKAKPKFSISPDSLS
# T5 sequence (O60706 whole entry): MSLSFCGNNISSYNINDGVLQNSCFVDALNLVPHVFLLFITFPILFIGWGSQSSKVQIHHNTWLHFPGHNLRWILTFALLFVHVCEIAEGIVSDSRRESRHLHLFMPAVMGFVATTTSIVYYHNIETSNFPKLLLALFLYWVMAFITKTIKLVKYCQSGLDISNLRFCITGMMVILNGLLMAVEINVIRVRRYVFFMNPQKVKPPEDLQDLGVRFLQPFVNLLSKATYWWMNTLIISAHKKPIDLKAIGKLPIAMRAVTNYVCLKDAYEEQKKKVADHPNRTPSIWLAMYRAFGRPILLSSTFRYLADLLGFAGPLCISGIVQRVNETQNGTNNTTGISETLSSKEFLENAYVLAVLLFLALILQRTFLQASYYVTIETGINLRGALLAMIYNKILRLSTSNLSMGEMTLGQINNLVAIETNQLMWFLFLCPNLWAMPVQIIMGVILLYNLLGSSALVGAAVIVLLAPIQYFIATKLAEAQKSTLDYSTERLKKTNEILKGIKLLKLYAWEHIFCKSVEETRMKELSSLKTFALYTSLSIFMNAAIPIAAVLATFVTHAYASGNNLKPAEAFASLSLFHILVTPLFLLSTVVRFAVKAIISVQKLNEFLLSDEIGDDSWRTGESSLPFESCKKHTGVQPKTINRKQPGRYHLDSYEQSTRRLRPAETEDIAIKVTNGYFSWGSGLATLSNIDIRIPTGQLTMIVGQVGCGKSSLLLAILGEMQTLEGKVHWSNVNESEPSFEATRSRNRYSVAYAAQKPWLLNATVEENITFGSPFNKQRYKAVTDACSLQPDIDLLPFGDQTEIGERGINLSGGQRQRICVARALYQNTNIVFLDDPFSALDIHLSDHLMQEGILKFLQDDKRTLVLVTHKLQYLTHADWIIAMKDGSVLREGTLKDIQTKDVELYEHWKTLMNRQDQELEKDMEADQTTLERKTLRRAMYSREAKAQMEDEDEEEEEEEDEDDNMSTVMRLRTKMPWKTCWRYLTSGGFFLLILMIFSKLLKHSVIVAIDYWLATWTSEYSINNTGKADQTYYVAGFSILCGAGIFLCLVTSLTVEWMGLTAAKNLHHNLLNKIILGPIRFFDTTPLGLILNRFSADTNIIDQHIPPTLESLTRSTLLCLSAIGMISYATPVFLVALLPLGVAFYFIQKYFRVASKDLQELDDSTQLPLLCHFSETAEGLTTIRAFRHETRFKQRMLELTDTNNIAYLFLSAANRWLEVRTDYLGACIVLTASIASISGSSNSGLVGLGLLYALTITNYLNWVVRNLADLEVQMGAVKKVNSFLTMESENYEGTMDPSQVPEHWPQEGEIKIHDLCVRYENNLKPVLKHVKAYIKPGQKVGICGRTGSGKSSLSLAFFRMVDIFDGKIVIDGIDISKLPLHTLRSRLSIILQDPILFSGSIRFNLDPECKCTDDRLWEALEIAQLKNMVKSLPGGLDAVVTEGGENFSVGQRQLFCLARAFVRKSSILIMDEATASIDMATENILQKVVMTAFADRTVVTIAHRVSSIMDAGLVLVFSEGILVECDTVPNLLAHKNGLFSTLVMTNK
# [17] = biological target: T6, 5-HT2C (Homo sapiens, UniProt P28335); assay: Radioligand binding, [3H]mesulergine; conditions: read-out: Reference: IC50
# T6 construct: expressed in transfected cells; host or cells: HEK-293 cells
# T6 sequence (P28335 33-458): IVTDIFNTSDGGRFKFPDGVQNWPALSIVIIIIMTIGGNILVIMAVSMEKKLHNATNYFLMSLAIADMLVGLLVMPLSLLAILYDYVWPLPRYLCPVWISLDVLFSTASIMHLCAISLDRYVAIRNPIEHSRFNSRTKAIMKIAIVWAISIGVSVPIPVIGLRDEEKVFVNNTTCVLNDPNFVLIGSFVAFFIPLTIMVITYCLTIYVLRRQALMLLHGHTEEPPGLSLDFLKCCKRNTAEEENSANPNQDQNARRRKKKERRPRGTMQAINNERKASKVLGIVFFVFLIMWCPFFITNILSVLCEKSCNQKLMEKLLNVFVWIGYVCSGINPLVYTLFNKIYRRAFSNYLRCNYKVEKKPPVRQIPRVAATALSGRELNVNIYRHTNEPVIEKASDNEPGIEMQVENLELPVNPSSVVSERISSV
# [18] = biological target: Purinergic Channels P2X; assay: Radioligand binding, [3H]a,b-MeATP, rat urinary bladder; conditions: reference compound run for the assay
# [19] = biological target: Purinergic Channels P2Y; assay: Radioligand binding, [35S]dATPaS; set-up: species or system rat; conditions: reference compound run for the assay
# [20] = biological target: Benzodiazepine BDZ Central; assay: Radioligand binding, [3H]flunitrazepam; set-up: species or system rat; conditions: read-out: Reference: IC50
# [21] = biological target: GABA Cl- channel (GABA-gated); assay: Radioligand binding, [35S]TBPS; set-up: species or system rat; conditions: reference compound run for the assay
# [22] = biological target: Adrenergic α2; assay: Radioligand binding, [3H]prazosin; set-up: species or system rat; conditions: reference compound run for the assay
# [23] = biological target: T7, Chemokines CCR1 (Homo sapiens, UniProt P32246); assay: Radioligand binding, [125I]MIP-1a; conditions: reference compound run for the assay
# T7 construct: expressed in transfected cells; host or cells: HEK-293 cells
# T7 sequence (P32246 1-355): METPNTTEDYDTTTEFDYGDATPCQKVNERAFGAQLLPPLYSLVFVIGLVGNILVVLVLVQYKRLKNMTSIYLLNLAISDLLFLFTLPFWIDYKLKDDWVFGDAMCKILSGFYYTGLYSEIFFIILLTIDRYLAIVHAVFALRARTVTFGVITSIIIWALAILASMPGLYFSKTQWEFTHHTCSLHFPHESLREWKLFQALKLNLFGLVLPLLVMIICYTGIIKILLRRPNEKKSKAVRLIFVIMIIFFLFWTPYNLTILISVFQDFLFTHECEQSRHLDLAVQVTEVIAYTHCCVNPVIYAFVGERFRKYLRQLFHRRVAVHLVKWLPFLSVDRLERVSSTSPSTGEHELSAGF
# [24] = tested on: TNF-α; assay: Radioligand binding, [125I]TNF-a, U-937 cells; conditions: reference compound run for the assay
# [25] = biological target: SKCa; assay: Radioligand binding, [125I]apamin; set-up: species or system rat; conditions: reference compound run for the assay
# [26] = biological target: Bombesin BB; assay: Radioligand binding, [125I][Tyr4]bombesin; set-up: species or system rat; conditions: reference compound run for the assay
# [27] = tested on: Somatostatin sst; assay: Radioligand binding, [125I]Tyr11-somatostatin-14, AtT-20 cells; conditions: reference compound run for the assay
compound,measurement,setting,value
COc1cc(CC(C)N)c(OC)cc1I (racemic) [(±)DOI],IC50,[1],5 nM
C[N+]1(C)CCC(OC(=O)C(c2ccccc2)c2ccccc2)CC1 [4-DAMP],IC50,[2],0.52 nM
"C[N+](C)(C)CCOC(N)=O [Carbachol, carbachol, reference compound]",RR interval after carbachol,"[3]; BP-G1 group, baseline 155.2 ± 16.3 ms",474.2 ± 60.7 ms
same,RR interval after carbachol,"[3]; saline control group, baseline 168.6 ± 10.7 ms",476.7 ± 77.8 ms
"Cc1ccnc2cc3c(cc12)OC(C)(C)C=C3 [GAT1572, 2,2,9-trimethyl-2H-pyrano[2,3-g]quinoline]",inhibitory activity on Kir3.1/4 channel,[4],not active
"Cc1cc(CO)nc2cc3c(cc12)OC(C)(C)C=C3 [GAT1573, (2,2,9-trimethyl-2H-pyrano[2,3-g]quinolin-7-yl)methanol]",inhibitory activity on Kir3.1/4 channel,[4],not active
"Cc1ccnc2cc3c(cc12)OC(C)(C)[C@H](O)[C@H]3NCCc1ccccc1 [GAT1588, (3R,4S)-2,2,9-trimethyl-4-(phenethylamino)-3,4-dihydro-2H-pyrano[2,3-g]quinolin-3-ol]",inhibitory activity on Kir3.1/4 channel,[4],retained comparable inhibitory activity to BP-G1; also recorded: inhibited the channel with comparable activity to BP-G1
Cc1cc(CO)nc2cc3c(cc12)OC(C)(C)[C@H](O)[C@H]3NCCc1ccccc1 [NTC-801],IC50,[5],> 30000 nM
same,IC50,[6],> 30000 nM
same,IC50,[7],> 30000 nM
same,IC50,[8],> 30000 nM
same,IC50,[9],34 nM
same,IC50,[10],7 nM
same,IC50,[11],> 11600 nM
same,IC50,[12],0.7 nM
same,IC50,[13],> 30000 nM
same,IC50,[14],> 30000 nM
same,IC50,[15],8300 nM
same,IC50,[16],7800 nM
COc1cc(OC)c(C(=O)CCCCN2CCC3(CC2)NC(=O)NC3=O)cc1NS(=O)(=O)c1ccc(C(F)(F)F)cc1 [RS 102221],IC50,[17],3.1 nM
"Nc1ncnc2c1ncn2[C@@H]1O[C@H](COP(=O)(O)CP(=O)(O)OP(=O)(O)O)[C@@H](O)[C@H]1O [a,b-MeATP]",IC50,[18],3.5 nM
Nc1ncnc2c1ncn2[C@H]1C[C@H](O)[C@@H](COP(O)(=S)OP(=O)(O)OP(=O)(O)O)O1 (stereo partly drawn) [dATPaS],IC50,[19],20 nM
CN1C(=O)CN=C(c2ccccc2)c2cc(Cl)ccc21 [diazepam],IC50,[20],8.6 nM
"C=C(C)[C@@H]1[C@H]2OC(=O)[C@@H]1[C@]1(O)C[C@H]3O[C@]34C(=O)O[C@H]2[C@]14C [picrotoxinin, reference compound]",IC50,[21],150 nM
COc1cc2nc(N3CCN(C(=O)c4ccco4)CC3)nc(N)c2cc1OC [prazosin],IC50,[22],0.182 nM
MIP-1a: assay reference compound,IC50,[23],0.04 nM
TNF-a,IC50,[24],0.1 nM
"apamin (CNCKAPETALCARRCQQH; ends and bridges not checked; cysteine pairing not given here; UniProt P01500 28-45, looked up)",IC50,[25],0.0091 nM
bombesin,IC50,[26],0.205 nM
somatostatin-14,IC50,[27],0.2 nM
